Assay results reported in US20180251431A1 (VERTEX PHARMACEUTICALS INCORPORATED, priority 2016, published 2018).

What follows are compounds tested on HEK293 cells (assay: HEK293 VLCFA-LPC IC50 determination (13C-labeled C26:0 LPC by UHPLC/MS)). Conditions: Homo sapiens, HEK293, HEK293 cells; average of one or more replicates; read-out: Average HEK293 IC50.
Assay type: cell-based, human
Method in brief: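 Suspension HEK293 cells (final 0.5 million/mL after mixing with equal volume) incubated 48 hours with compound plus 13C-acetate (1.0 mg/mL in added media), shaking at 37° C. Lipids extracted with hexane/isopropanol or methanol, C13:0 LPC standard. UHPLC/MS of 13C-labeled C26:0 LPC (638.500/104.100 m/z); IC50 by four-parameter fit.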
`Cc1cc(NC(=O)C2(c3ncccc3F)CC2)nn1-c1ccc(F)cc1F` [Compound 451, N-[1-(2,4-difluorophenyl)-5-methyl-pyrazol-3-yl]-1-(3-fluoro-2-pyridyl)cyclopropanecarboxamide] gave an IC50 of 2400 nM.
`COc1ncc(-n2ccc(NC(=O)C3(c4ncccc4F)CC3)n2)cc1F` [Compound 452, N-[1-(5-fluoro-6-methoxy-3-pyridyl)pyrazol-3-yl]-1-(3-fluoro-2-pyridyl)cyclopropanecarboxamide] showed an IC50 of 54 nM.
In the case of `O=C(Nc1ccn(-c2ncccc2Cl)n1)C1(c2ncccc2F)CC1` [Compound 453], the IC50 is reported as > 5000 nM.
In the case of `COc1ncc(-n2ccc(NC(=O)C3(c4ncccc4F)CC3)n2)cn1` [Compound 454, 1-(3-fluoro-2-pyridyl)-N-[1-(2-methoxypyrimidin-5-yl)pyrazol-3-yl]cyclopropanecarboxamide], the IC50 is reported as > 5000 nM.
In the case of `O=C(Nc1ccn(-c2cncc(Cl)c2)n1)C1(c2ncccc2F)CC1` [Compound 455, N-[1-(5-chloro-3-pyridyl)pyrazol-3-yl]-1-(3-fluoro-2-pyridyl)cyclopropanecarboxamide], the IC50 is reported as 100 nM.
Compound `O=C(Nc1ccn(-c2ccc(F)cc2)n1)C1(c2ncccc2F)CC1` [Compound 456, N-[1-(4-fluorophenyl)pyrazol-3-yl]-1-(3-fluoro-2-pyridyl)cyclopropanecarboxamide] has an IC50 of 100 nM.
`O=C(Nc1ccn(-c2ccc(C(F)(F)F)cc2)n1)C1(c2ncccc2F)CC1` [Compound 457, 1-(3-fluoro-2-pyridyl)-N-[1-[4-(trifluoromethyl)phenyl]pyrazol-3-yl]cyclopropanecarboxamide] was tested, and the IC50 was > 5000 nM.
`O=C(Nc1ccn(-c2cccnn2)n1)C1(c2ncccc2F)CC1` [Compound 458, 1-(3-fluoro-2-pyridyl)-N-(1-pyridazin-3-ylpyrazol-3-yl)cyclopropanecarboxamide] showed an IC50 of 940 nM.
With `O=C(Nc1ccn(-c2cncnc2)n1)C1(c2ncccc2F)CC1` [Compound 459, 1-(3-fluoro-2-pyridyl)-N-(1-pyrimidin-5-ylpyrazol-3-yl)cyclopropanecarboxamide] the IC50 was 920 nM.
For `O=C(Nc1ccn(-c2ncccc2F)n1)C1(c2ncccc2F)CC1` [Compound 460, 1-(3-fluoro-2-pyridyl)-N-[1-(3-fluoro-2-pyridyl)pyrazol-3-yl]cyclopropanecarboxamide], the IC50 was > 2000 nM.
With `O=C(Nc1ccn(-c2cc(F)cc(F)c2)n1)C1(c2ncccc2F)CC1` [Compound 461, N-[1-(3,5-difluorophenyl)pyrazol-3-yl]-1-(3-fluoro-2-pyridyl)cyclopropanecarboxamide] the IC50 was 76 nM.
`O=C(Nc1cc(F)n(-c2cncc(F)c2)n1)C1(c2ncccc2F)CC1` [Compound 462, N-[5-fluoro-1-(5-fluoro-3-pyridyl)pyrazol-3-yl]-1-(3-fluoro-2-pyridyl)cyclopropanecarboxamide] was tested, and the IC50 was > 5000 nM.
With `O=C(Nc1cc(F)n(-c2cncc(F)c2)n1)C1(c2ccccc2F)CC1` [Compound 463, N-[5-fluoro-1-(5-fluoro-3-pyridyl)pyrazol-3-yl]-1-(2-fluorophenyl)cyclopropanecarboxamide] the IC50 was > 5000 nM.
For `O=C(Nc1ccn(-c2cncc(F)c2)n1)C1(c2ccccn2)CC1` [Compound 464, N-[1-(5-fluoro-3-pyridyl)pyrazol-3-yl]-1-(2-pyridyl)cyclopropanecarboxamide], the IC50 was 130 nM.
With `O=C(Nc1ccn(-c2cncc(F)c2)n1)C1(c2cccc(OC(F)(F)F)c2)CC1` [Compound 465] the IC50 was 24 nM.
`O=C(Nc1ccn(-c2cncc(F)c2)n1)C1(c2ccc(F)cn2)CC1` [Compound 466, 1-(5-fluoro-2-pyridyl)-N-[1-(5-fluoro-3-pyridyl)pyrazol-3-yl]cyclopropanecarboxamide] was tested, and the IC50 was 560 nM.
`COc1cc(-n2ccc(NC(=O)C3(c4ccccc4F)CC3)n2)c(F)cn1` [Compound 467, N-[1-(5-fluoro-2-methoxy-4-pyridyl)pyrazol-3-yl]-1-(2-fluorophenyl)cyclopropanecarboxamide] gave an IC50 of 2700 nM.
`COc1cc(-n2ccc(NC(=O)C3(c4ccccc4F)CC3)n2)ccc1F` [Compound 468, N-[1-(4-fluoro-3-methoxy-phenyl)pyrazol-3-yl]-1-(2-fluorophenyl)cyclopropanecarboxamide] was tested, and the IC50 was > 5000 nM.
`COc1ccncc1-n1ccc(NC(=O)C2(c3ccccc3F)CC2)n1` [Compound 469, 1-(2-fluorophenyl)-N-[1-(4-methoxy-3-pyridyl)pyrazol-3-yl]cyclopropanecarboxamide] was tested, and the IC50 was > 2000 nM.
`COc1ccc(-n2ccc(NC(=O)C3(c4ccccc4F)CC3)n2)c(F)c1` [Compound 470] was tested, and the IC50 was > 2000 nM.
In the case of `Cc1ncccc1-n1ccc(NC(=O)C2(c3ccccc3F)CC2)n1` [Compound 471, 1-(2-fluorophenyl)-N-[1-(2-methyl-3-pyridyl)pyrazol-3-yl]cyclopropanecarboxamide], the IC50 is reported as > 5000 nM.
`Cc1ccncc1-n1ccc(NC(=O)C2(c3ccccc3F)CC2)n1` [Compound 472, 1-(2-fluorophenyl)-N-[1-(4-methyl-3-pyridyl)pyrazol-3-yl]cyclopropanecarboxamide] was tested, and the IC50 was 56 nM.
Compound `O=C(Nc1ccn(-c2ccccc2)n1)C1(c2cccs2)CC1` [Compound 474, N-(1-phenylpyrazol-3-yl)-1-(2-thienyl)cyclopropanecarboxamide] has an IC50 of 19 nM.
With `O=C(Nc1ccn(-c2ccccc2)n1)C1(c2ccc(F)cn2)CC1` [Compound 475, 1-(5-fluoro-2-pyridyl)-N-(1-phenylpyrazol-3-yl)cyclopropanecarboxamide] the IC50 was 270 nM.
`CC(C)(C(=O)Nc1ccn(-c2ccccc2)n1)c1ccccn1` [Compound 476, 2-methyl-N-(1-phenylpyrazol-3-yl)-2-(2-pyridyl)propanamide] was tested, and the IC50 was 530 nM.
`O=C(Nc1ccn(-c2ccccc2)n1)C1(c2cnccn2)CC1` [Compound 477, N-(1-phenylpyrazol-3-yl)-1-pyrazin-2-yl-cyclopropanecarboxamide] gave an IC50 of 1500 nM.
In the case of `COc1cc(-n2ccc(NC(=O)C3(c4cccs4)CC3)n2)ccn1` [Compound 478, N-[1-(2-methoxy-4-pyridyl)pyrazol-3-yl]-1-(2-thienyl)cyclopropanecarboxamide], the IC50 is reported as 120 nM.
In the case of `O=C(Nc1ccn(-c2ccc(F)c(F)c2)n1)C1(c2cccs2)CC1` [Compound 479, N-[1-(3,4-difluorophenyl)pyrazol-3-yl]-1-(2-thienyl)cyclopropanecarboxamide], the IC50 is reported as 190 nM.
`O=C(Nc1ccn(-c2cc(F)cc(F)c2)n1)C1(c2cccs2)CC1` [Compound 480, N-[1-(3,5-difluorophenyl)pyrazol-3-yl]-1-(2-thienyl)cyclopropanecarboxamide] gave an IC50 of 230 nM.
Work on `O=C(Nc1ccn(-c2ccc(F)cc2)n1)C1(c2cccs2)CC1` [Compound 481, N-[1-(4-fluorophenyl)pyrazol-3-yl]-1-(2-thienyl)cyclopropanecarboxamide] yielded an IC50 of 160 nM.
In the case of `O=C(Nc1ccn(-c2ccncc2)n1)C1(c2cccs2)CC1` [Compound 482, N-[1-(4-pyridyl)pyrazol-3-yl]-1-(2-thienyl)cyclopropanecarboxamide], the IC50 is reported as 39 nM.
`O=C(Nc1ccn(-c2cncc(F)c2)n1)C1(c2cccs2)CC1` [Compound 483, N-[1-(5-fluoro-3-pyridyl)pyrazol-3-yl]-1-(2-thienyl)cyclopropanecarboxamide] was tested, and the IC50 was < 20 nM.
With `O=C(Nc1ccn(-c2cncc(OC(F)F)c2)n1)C1(c2cccs2)CC1` [Compound 484, N-[1-[5-(difluoromethoxy)-3-pyridyl]pyrazol-3-yl]-1-(2-thienyl)cyclopropanecarboxamide] the IC50 was > 5000 nM.
